Our source for the IC50 values is ChEMBL document CHEMBL4699398, “The synthesis and biological evaluation of sanguinarine derivatives as anti-non-small cell lung cancer agents” (RSC Med Chem, 2020).

One experiment deals with A549. Nature of the experiment: Antiproliferative activity against human A549 cells assessed as inhibition of cell growth incubated for 72 hrs by CCK-8 assay. The following applies: A549, 72 h. For orientation: Tetrazolium dyes change colour on reduction, which living cells bring about.
The next experiment has as its system NCI-H1975. Put plainly: Antiproliferative activity against human H1975 cells assessed as inhibition of cell growth incubated for 72 hrs by CCK-8 assay. The conditions noted are these: NCI-H1975, 72 h.
A further experiment has as its system HeLa. Put plainly: Antiproliferative activity against human HeLa cells assessed as reduction in cell viability after 24 hrs by MTT assay. The experiment is classed as functional, cell-based.

Each structure is given as a SMILES string. Bounds are passed on as bounds.

Usually IC50 stands for the concentration that inhibits the measured activity by half. On to `CCCN1Cc2c(ccc3c2OCO3)-c2ccc3cc4c(cc3c21)OCO4`, for which the IC50 with A549 and with NCI-H1975 was > 30000 nM each time.

Regarding `CN1c2c(ccc3cc4c(cc23)OCO4)-c2ccc3c(c2C1C#N)OCO3` (centres undefined), the IC50 was found to be 960 nM with A549 and 790 nM with NCI-H1975.

`CN1c2c(ccc3cc4c(cc23)OCO4)-c2ccc3c(c2C1NC1CCCC1)OCO3` (centres undefined): the values for the IC50 in the experiment with A549 and in the experiment on NCI-H1975 were 1970 nM and 1570 nM, respectively.

Regarding `CCCNC1c2c(ccc3c2OCO3)-c2ccc3cc4c(cc3c2N1C)OCO4` (centres undefined), the half-inhibitory concentration (IC50) in the experiment on A549 worked out at 1480 nM; in the experiment with NCI-H1975, 1000 nM.

As for `Cn1c(=O)c2c3c(ccc2c2ccc4cc5c(cc4c21)OCO5)OCO3`, the IC50 with A549 and with NCI-H1975 was > 30000 nM each time.

Regarding `CN1Cc2c(ccc3c2OCO3)-c2ccc3cc4c(cc3c21)OCO4` [DIHYDROSANGUINARINE], the IC50 with A549 is > 30000 nM; in the experiment on NCI-H1975 it was 19100 nM.

Take `CC(C)NC1c2c(ccc3c2OCO3)-c2ccc3cc4c(cc3c2N1C)OCO4` (centres undefined): the IC50 in the experiment with A549 was 1460 nM; with NCI-H1975, 960 nM.

For the molecule `c1cc2c(cnc3c4cc5c(cc4ccc23)OCO5)c2c1OCO2`, the half-inhibitory concentration (IC50) in the experiment with A549 and with NCI-H1975 was > 30000 nM throughout.

On to `CN1c2c(ccc3cc4c(cc23)OCO4)-c2ccc3c(c2C1NCc1ccccc1)OCO3` (centres undefined), for which the figures for the IC50 in the experiment on A549 and in the experiment with NCI-H1975 were 4350 nM and 3130 nM, respectively.

`CCNC1c2c(ccc3c2OCO3)-c2ccc3cc4c(cc3c2N1C)OCO4` (centres undefined): the IC50 was 1250 nM with A549 and 940 nM in the experiment on NCI-H1975.

For `COC1c2c(ccc3c2OCO3)-c2ccc3cc4c(cc3c2N1C)OCO4` (centres undefined), the IC50 in the experiment with A549 was found to be 1590 nM; in the experiment with NCI-H1975, 1170 nM.

As for `C[n+]1cc2c3c(ccc2c2ccc4cc5c(cc4c21)OCO5)OCO3` [SANGUINARIUM CHLORIDE], the IC50 in the experiment on A549 was 1590 nM; in the experiment on HeLa, 2430 nM; with NCI-H1975 it was 1320 nM.

As to `CCN1Cc2c(ccc3c2OCO3)-c2ccc3cc4c(cc3c21)OCO4`, the IC50 in the experiment with A549 and in the experiment with NCI-H1975 was > 30000 nM each time.

For `CC1c2c(ccc3c2OCO3)-c2ccc3cc4c(cc3c2N1C)OCO4` (centres undefined), the IC50 in the experiment on A549 and with NCI-H1975 was > 30000 nM in each case.
